These are literature values, as cited in US20060110374A1, “Method to accelerate stem cell recruitment and homing” (priority 2004, published 2006).

For series [1] the following is noted: patients, intra-coronary injection followed by 2 weeks of subcutaneous administration.
For series [2], the system named is EPCs.
For series [3], the system named is EPCs. The source holds these as a separate data set.

A value given as a limit tells only on which side of the number the result lay.

Take “GM-CSF: granulocyte macrophage colony stimulating factor”: in series [1], the coronary collateral flow result is “significant increase”. Besides, the “numbers of EPCs” value in series [2] (mice and rabbits) is “Increased numbers”. Moreover, in series [2] (mice, corneal neovascularization model), the “neovascularization with bone marrow-derived cells” value was “enhanced neovascularization”.

Regarding VEGF, the “time to rise of EPC levels in the bloodstream” value in series [3] (after administration) is on record as at most 24 h. Also, the “mobilization of EPCs into the peripheral circulation” value in series [3] (animal models, exogenous administration) is recorded as “promotes rapid mobilization”.
